Measured values published in US20240058321A1, “FARNESYL-TRANSFERASE INHIBITORS AND KRAS INHIBITORS FOR TREATING KRAS MUTANT CANCERS” (SEMMELWEIS EGYETEM, priority 2021, published 2024).
Like-named read-outs stand apart in the source and are kept apart here.

Tests used:
[1] = system: SW1990; assay: 2D combinational test (SRB growth inhibition, six days); assay type: cell-based, human; details: for viability at 0.1 µM / viability at 0.5 µM / viability at 1 µM: Homo sapiens, SW1990, SW1990, read-out: Relative cell viability (MEAN); for Relative cell viability (MEAN): SW1990
Source text: (§1) OD values were normalized to control. […] Data shown are results of three independent experiments.

[2] = system: SW1573; assay: as above
Experimental: H358, SW1573, H1792, MIAPACA2, SW1990, SNUC2B, SW480, A549 and HCT116 were purchased from ATCC, while SW48 KRAS G12C colorectal cell line and H838 KRAS G12D lung cell line was bought from Horizon Discovery Ltd. Most of the cell lines were heterozygous for mutant KRAS, as in human cases used to occur, but we also used cell lines with homozygous mutant KRAS.
Cells were cultured in DMEM (Lonza, Switzerland; with 4500 mg/dm3 glucose, pyruvate and L-glutamine) supplemented with 10% fetal calf serum (EuroClone) and 1% penicillin-streptomycin-amphotericin (Lonza) in tissue culture flasks in a humidified 5% CO2 atmosphere at 37° C.
For in vitro experiments drugs were dissolved in DMSO in 10 mM stock concentration and stored at −80° C.
Cells that reached 70-80% confluency were trypsinized and counted using Luna II Automated Cell Counter. Cells were plated in 5000-10000 cells/well density (depending on the growth rate of the given cell line) on a 24 well plate. Next day the medium was replaced to fresh medium supplemented with the inhibitors. After 6 days, the wells were washed with DPBS (Lonza) and the cells were fixed by 10% trichloroacetic acid and stained with Sulphorodamine-B (SRB) (Sigma) dye for 15 minutes. Plates then were repeatedly washed with 1% acetic acid to remove excess dye. Protein-bound SRB was then dissolved in 10 mM Tris buffer (pH=7,4) and OD was measured at 570 nm using a microplate reader (EL800, BioTec Instruments, Winooski, VT). OD values were normalized to control. Transformed data then were used to calculate combinational index (CI) values using Compusyn software as described in https://www.combosyn.com/index.html. Data shown are results of three independent experiments.

[3] = system: SW1573; assay: siRNA knockdown experiment (SRB, IC50); assay type: cell-based, human; details: Homo sapiens, SW1573, 144 h, 6-day-long treatment
Experimental: Cells were plated in 2500 and 7500 cells/well density (for non-targeting siRNA and HRAS siRNA treatment, respectively) on a 48we11 plate supplemented with pre-mixed Lipofectamine RNAIMAX Reagent (Thermo Fisher) and OptiMEM (Thermo Fisher) containing 2.5 pmol/well non-targeting or HRAS siRNA according to the manufacturer's instruction (reverse transfection protocol). […] On the 3rd day of the treatment, cells were supplemented with fresh pre-mixed 2.5 pmol/well siRNA diluted in Lipofectamine RNAiMAX Reagent and Optimem according to the manufacturer's instruction. […] OD values were normalized to control, and IC50 values were calculated from transformed data using GraphPad PRISM 5 software.

[4] = system: SW1573 xenografts; assay: In vivo tumor growth of subcutaneous xenografts; set-up: species or system female SCID mice; details: AMG510 25 mg/kg i.p. and/or tipifarnib 40 mg/kg i.p., (day 1 = 1)
Experimental: (§2) H358 and SW1573 human lung adenocarcinoma cells (5×10^6 and 1×10^6, respectively) were subcutaneously injected in female SCID mice. Cells were injected in 200 μl DMEM:Matrigel mixture (ratio 1:1) based on preliminary experiments. When tumor reached approximately 100 mm^3 (H358 7 days, SW1573 26 days after injection), animals were randomized and treated intraperitoneally daily except for weekends. Drugs were dissolved in 60% DPBS, 34% PEG300, 5% DMSO and 1% Tween80. […] Controls received vehicle. Doses were determined based on previous literature, roughly using half of the used per os doses. The subcutaneous tumors were measured with a caliper and tumor volumes were calculated with the formula […] and expressed in mm^3. H358 experiment was terminated after 18 days and SW1573 after 25 days treatment. Tumors were measured upon harvest, then fixed with 4% PFA for histological analyses.
(§3) Animals were the properties of the Department of Experimental Pharmacology, National Institute of Oncology, H-1122, Budapest, Hungary. All experiments were carried out in accordance with the Guidelines for Animal Experiments and were approved for the Department of Experimental Pharmacology in the National Institute of Oncology, Budapest, Hungary.

[5] = system: H358 xenografts; assay: In vivo tumor growth of subcutaneous xenografts; set-up: species or system female SCID mice; details: AMG510 5 mg/kg i.p. and/or tipifarnib 40 mg/kg i.p., (day 1 = 1)
Experimental: as §2, §3

[6] = system: SW480; assay: 2D combinational test (SRB growth inhibition, six days); assay type: cell-based, human
Source text: as §1

[7] = system: SNUC2B; assay: as above; assay type: cell-based, human
Source text: as §1

[8] = system: HCT116; assay: as above; assay type: cell-based, human
Source text: as §1

[9] = system: A549; assay: as above; assay type: cell-based, human
Source text: as §1

[10] = system: H838 KRAS G12D; assay: as above; assay type: cell-based, human
Source text: as §1

[11] = system: PF906; assay: as above; assay type: cell-based, human
Source text: as §1

[12] = system: H358; assay: as above; details: concentration range of 1-20 μM, data not shown
[13] = group mean, in g (unit assumed)
[14] = 0 nM tipifarnib + 25 nM MRTX1133
[15] = 0 nM tipifarnib + 125 nM MRTX1133
[16] = 0 nM tipifarnib + 625 nM MRTX1133

## Cn1cncc1[C@@](N)(c1ccc(Cl)cc1)c1ccc2c(c1)c(-c1cccc(Cl)c1)cc(=O)n2C [tipifarnib]
[1]; 100 nM tipifarnib + 0 μM BI2852
  viability at 0.1 µM: 75.6%
[1]; 100 nM tipifarnib + 0 nM MRTX1133
  viability at 0.1 µM: 80.2%
[1]; 500 nM tipifarnib + 0 μM BI2852
  viability at 0.5 µM: 67%
[1]; 500 nM tipifarnib + 0 nM MRTX1133
  viability at 0.5 µM: 70.3%
[1]; 1000 nM tipifarnib + 0 μM BI2852
  viability at 1 µM: 55%
[1]; 1000 nM tipifarnib + 0 nM MRTX1133
  viability at 1 µM: 63.4%
[2]; Homo sapiens, SW1573, read-out: Relative cell viability (MEAN), SW1573, 25 nM tipifarnib + 0 μM BI2852
  viability at 0.025 µM: 41.4%
[2]; Homo sapiens, SW1573, read-out: Relative cell viability (MEAN), SW1573, 50 nM tipifarnib + 0 μM BI2852
  viability at 0.05 µM: 35.4%
[2]; Homo sapiens, SW1573, read-out: Relative cell viability (MEAN), SW1573, 100 nM tipifarnib + 0 μM BI2852
  viability at 0.1 µM: 29.2%
[3]; Cont (non-targeting) siRNA
  IC50: 4.56 nM
[3]; HRAS siRNA
  IC50: 10.5 nM
[4]; animal 1, in g (unit assumed)
  Weights of the tumors at the end of the experiment: 0.5323
[4]; animal 2, in g (unit assumed)
  Weights of the tumors at the end of the experiment: 0.2277
[4]; animal 3, in g (unit assumed)
  Weights of the tumors at the end of the experiment: 0.3143
[4]; animal 5, in g (unit assumed)
  Weights of the tumors at the end of the experiment: 0.2239
[4]; animal 6, in g (unit assumed)
  Weights of the tumors at the end of the experiment: 0.2604
[4]; animal 7, in g (unit assumed)
  Weights of the tumors at the end of the experiment: 1.2243
[4]; [13]
  Weights of the tumors at the end of the experiment, MEAN: 0.4638
[5]; animal 1, in g (unit assumed)
  Weights of the tumors at the end of the experiment: 0.182
[5]; animal 2, in g (unit assumed)
  Weights of the tumors at the end of the experiment: 1.599
[5]; animal 3, in g (unit assumed)
  Weights of the tumors at the end of the experiment: 1.023
[5]; animal 4, in g (unit assumed)
  Weights of the tumors at the end of the experiment: 0.223
[5]; animal 5, in g (unit assumed)
  Weights of the tumors at the end of the experiment: 0.225
[5]; animal 6, in g (unit assumed)
  Weights of the tumors at the end of the experiment: 0.205
[5]; animal 7, in g (unit assumed)
  Weights of the tumors at the end of the experiment: 0.239
[5]; [13]
  Weights of the tumors at the end of the experiment, MEAN: 0.528

## Cn1cnc(Cn2ccc3ccc(CNCc4[nH]c5ccccc5c4[C@H]4NC(=O)c5ccc(O)cc54)cc32)c1 [BI2852]
[6]; 0 nM lonafarnib + 15 μM BI2852
  Relative cell viability (MEAN): 0.8064
[6]; 0 nM lonafarnib + 20 μM BI2852
  Relative cell viability (MEAN): 0.6712
[6]; 0 nM lonafarnib + 30 μM BI2852
  Relative cell viability (MEAN): 0.3888
[6]; 0 nM tipifarnib + 5 μM BI2852
  Relative cell viability (MEAN): 0.9312
[6]; 0 nM tipifarnib + 10 μM BI2852
  Relative cell viability (MEAN): 0.7461
[6]; 0 nM tipifarnib + 15 μM BI2852
  Relative cell viability (MEAN): 0.5371
[1]; 0 nM tipifarnib + 10 μM BI2852
  Relative cell viability (MEAN): 0.9287
[1]; 0 nM tipifarnib + 20 μM BI2852
  Relative cell viability (MEAN): 0.8554
[1]; 0 nM tipifarnib + 30 μM BI2852
  Relative cell viability (MEAN): 0.8187
[7]; 0 nM tipifarnib + 10 μM BI2852
  Relative cell viability (MEAN): 0.8372
[7]; 0 nM tipifarnib + 20 μM BI2852
  Relative cell viability (MEAN): 0.7477
[7]; 0 nM tipifarnib + 30 μM BI2852
  Relative cell viability (MEAN): 0.664
[8]; 0 nM TIPIFARNIB + 10 μM BI2852
  Relative cell viability (MEAN): 0.846
[8]; 0 nM TIPIFARNIB + 20 μM BI2852
  Relative cell viability (MEAN): 0.7086
[8]; 0 nM TIPIFARNIB + 30 μM BI2852
  Relative cell viability (MEAN): 0.5907
[9]; 0 nM TIPIFARNIB + 20 μM BI2852
  Relative cell viability (MEAN): 0.9541
[9]; 0 nM TIPIFARNIB + 30 μM BI2852
  Relative cell viability (MEAN): 0.8484
[9]; 0 nM TIPIFARNIB + 40 μM BI2852
  Relative cell viability (MEAN): 0.7576

## C#Cc1c(F)ccc2cc(O)cc(-c3ncc4c(N5CC6CCC(C5)N6)nc(OC[C@@]56CCCN5C[C@H](F)C6)nc4c3F)c12 [MRTX1133]
[1]; 0 nM lonafarnib + 2.5 nM MRTX1133
  Relative cell viability (MEAN): 0.848
[1]; 0 nM lonafarnib + 5 nM MRTX1133
  Relative cell viability (MEAN): 0.7005
[1]; 0 nM lonafarnib + 10 nM MRTX1133
  Relative cell viability (MEAN): 0.5543
[1]; 0 nM tipifarnib + 2.5 nM MRTX1133
  Relative cell viability (MEAN): 0.7355
[1]; 0 nM tipifarnib + 5 nM MRTX1133
  Relative cell viability (MEAN): 0.5922
[1]; 0 nM tipifarnib + 10 nM MRTX1133
  Relative cell viability (MEAN): 0.4549
[7]; 0 nM tipifarnib + 50 nM MRTX1133
  Relative cell viability (MEAN): 0.739
[7]; 0 nM tipifarnib + 100 nM MRTX1133
  Relative cell viability (MEAN): 0.7023
[7]; 0 nM tipifarnib + 500 nM MRTX1133
  Relative cell viability (MEAN): 0.6567
[10]; [14]
  Relative cell viability (MEAN): 0.8997
[10]; [15]
  Relative cell viability (MEAN): 0.7955
[10]; [16]
  Relative cell viability (MEAN): 0.6909
[11]; [14]
  Relative cell viability (MEAN): 0.716
[11]; [15]
  Relative cell viability (MEAN): 0.625
[11]; [16]
  Relative cell viability (MEAN): 0.574

## Cc1nc[nH]c1CN1CCN(C(=O)N[C@@H](CC(C)C)C(=O)O)[C@@H](Cc2ccccc2)C1=O [GGTI-2418]
[2]; SW1573, concentration range of 1-20 μM, data not shown
  Effect on tumor cell proliferation (in words): ineffective
[12]
  Effect on tumor cell proliferation (in words): ineffective
